Source: patent publication US7645881B2, “Methods for treating hepatitis C” (PTC Therapeutics, Inc., priority 2004, dated 2010)

Key:
HCV replicon = assay: microbe, parasite or virus in culture; type: cell-based; conditions: Hepatitis C virus, 48 h, read-out: Replicon IC50s μM

Row | SMILES | IC50 (HCV replicon) [µM] | melting point [°C]
1 | N#Cc1cccc(-c2sc3nc4c(c(-c5cccs5)c3c2C#N)CCCCC4)c1 [Compound 61] | > 2 | 159 to 162
2 | CCc1c(C)nc2sc(NC(=O)C(C)C)c(C#N)c2c1C [Compound 53] | > 2 | 189 to 190
3 | COc1ccc(-c2sc3nc4c(c(-c5cccs5)c3c2C#N)CCCCC4)cc1 [Compound 63, 2-(4-methoxyphenyl)-4-thiophen-2-yl-6,7,8,9-tetrahydro-5H-1-thia-10-aza-cyclohepta[f]indene-3-carbonitrile] | > 2 | 179.2 to 179.6
4 | Cc1nc2sc(C(=O)OC(C)(C)C)c(N)c2c(C)c1OCCN1CCN(CCCN(C)C)CC1 [Compound 69] | 0.5 to 2 | 
5 | Cc1nc2sc(-c3nnc(-c4ccc(F)cc4)o3)c(N)c2c(C)c1C [Compound 10] | 0.5 to 2 | 320 to 322
6 | Cc1nc2sc(C(=O)OC(C)(C)C)c(N)c2c(C)c1OCCN1CCOCC1 [Compound 67, t-butyl 3-amino-4,6-dimethyl-5-(2-morpholin-4-yl-ethoxy)-thieno[2,3-b]pyridine-2-carboxylate] | > 2 | 102 to 104
7 | CCOC(=O)c1sc2nc3c(c(-c4ccco4)c2c1N)CCC3 [Compound 46] | > 2 | 157.6 to 157.7
8 | Cc1nc2sc(-c3nc(-c4cccnc4)no3)c(N)c2c(C)c1C [Compound 25] | 0.5 to 2 | 278 to 280
9 | Cc1nc2sc(-c3nnc(-c4ccccc4F)o3)c(N)c2c(C)c1C [Compound 14] | < 0.5 | 287 to 288
10 | Cc1ccccc1-c1nnc(-c2sc3nc(C)c(C)c(C)c3c2N)o1 [Compound 13] | < 0.5 | 261 to 262
11 | CCc1c(C)nc2sc(C(=O)OC(C)(C)C)c(-c3cccc(C#N)c3)c2c1C [Compound 36] | > 2 | 
12 | CCc1c(C)nc2sc(C(=O)OC(C)(C)C)c(-c3cccc(Cl)c3)c2c1C [Compound 43] | > 2 | 152.1 to 152.6
13 | Cc1nc2sc(-c3nc(COc4ccc(Cl)c(Cl)c4)no3)c(N)c2c(C)c1C [Compound 18] | 0.5 to 2 | 197 to 200
14 | Cc1nc2sc(-c3nnc(-c4ccc(Cl)s4)o3)c(N)c2c(C)c1C [Compound 9] | 0.5 to 2 | 284 to 286
15 | Cc1nc2sc(-c3nc(-c4cccs4)no3)c(N)c2c(C)c1C [Compound 19] | < 0.5 | 281 to 282
16 | COCCN1CCN(CCOc2c(C)nc3sc(C(=O)OC(C)(C)C)c(N)c3c2C)CC1 [Compound 66] | > 2 | 79 to 81
17 | CC(C)(C)NC(=O)c1sc2nc3c(c(-c4cccs4)c2c1N)CCCCC3 [Compound 48] | > 2 | 184 to 185
18 | CCCCNc1cc(C)c2c(N)c(C(N)=O)sc2n1 [Compound 17] | 0.5 to 2 | 169 to 170
19 | Cc1nc2sc(-c3nnc(-c4ccccn4)o3)c(N)c2c(C)c1C [Compound 16] | < 0.5 | 306 to 308
20 | CC(C)(C)OC(=O)c1sc2nc3c(c(-c4cccs4)c2c1N)CCCCC3 [Compound 45, tert-butyl 3-amino-4-thiophen-2-yl-6,7,8,9-tetrahydro-5H-1-thia-10-aza-cyclohepta[f]indene-2-carboxylate] | > 2 | 202.9 to 203.1
21 | CC(C)(C)OC(=O)c1sc2nc3c(c(-c4ccco4)c2c1N)CCC3 [Compound 33] | > 2 | 

Row | SMILES | IC50 (HCV replicon) [µM] | melting point [°C]
22 | Cc1nc2sc(C(=O)OC(C)(C)C)c(N)c2c(C)c1OCCN1CCCCC1 [Compound 70] | 0.5 to 2 | 
23 | CCc1c(C)nc2sc(-c3nnc(-c4ccccc4)o3)c(N)c2c1C [Compound 6, 5-ethyl-4,6-dimethyl-2-(5-phenyl-[1,3,4]oxadiazol-2-yl)-thieno[2,3-b]pyridin-3-yl amine] | 0.5 to 2 | 306 to 307
24 | CCc1c(C)nc2sc(C(=O)SC(C)(C)C)cc2c1C [Compound 65] | 0.5 to 2 | 109.6 to 110.2
25 | CCc1c(C)nc2sc(C(C)=O)c(-n3cccc3)c2c1C [Compound 27] | > 2 | 145 to 147
26 | Nc1c(C(=O)Nc2ccccc2)sc2nc3c(cc12)CCCCC3 [Compound 28] | > 2 | 
27 | CC(C)(C)OC(=O)c1sc2nc3c(c(-c4cccs4)c2c1N)CCCC3 [Compound 34] | > 2 | 
28 | CCc1c(C)nc2sc(C(=O)N3CCCCC3)c(-c3ccc(OC)cc3)c2c1C [Compound 41] | > 2 | 
29 | Cc1nc2sc(-c3ncc(-c4ccccc4)o3)c(N)c2c(C)c1C [Compound 26] | 0.5 to 2 | 284 to 285
30 | Cc1nc2sc(C(=O)OC(C)(C)C)c(N)c2c(C)c1OCCN(C)CCN(C)C [Compound 73] | 0.5 to 2 | 
31 | Cc1nc2sc(-c3nnc(-c4cccc(Cl)c4)o3)c(N)c2c(C)c1C [Compound 11] | > 2 | 302 to 303
32 | CCc1c(C)nc2sc(C(=O)SC(C)(C)C)c(N)c2c1C [Compound 56] | > 2 | 
33 | Nc1c(C(=O)N2CCOCC2)sc2nc3c(cc12)CCCCC3 [Compound 1] | > 2 | 203 to 204
34 | Nc1c(C(=O)Nc2ccc(Br)cc2)sc2nc3c(c(-c4ccco4)c12)CCCCC3 [Compound 51] | > 2 | 
35 | CCc1c(C)nc2sc(C(=O)NCc3ccccc3)c(-c3ccc(OC)cc3)c2c1C [Compound 44] | > 2 | 
36 | N#Cc1c(NC(=O)c2cccc(C(F)(F)F)c2)sc2nc3c(c(-c4cccs4)c12)CCCCC3 [Compound 58, N-(3-cyano-4-thiophen-2-yl-6,7,8,9-tetrahydro-5H-1-thia-10-aza-cyclohepta[f]inden-2-yl)-3-trifluoromethyl-benzamide] | > 2 | 226.9 to 227.1
37 | Cc1cccc(-c2nnc(-c3sc4nc(C)c(C)c(C)c4c3N)o2)c1 [Compound 7] | 0.5 to 2 | 268 to 270
38 | CCc1c(C)nc2sc(C(=O)OC(C)(C)C)c(-c3ccoc3)c2c1C [Compound 40] | > 2 | 111 to 111.5
39 | CC(C)(C)OC(=O)c1sc2nc3c(c(-c4cccc(F)c4F)c2c1N)CCCCC3 [Compound 31] | > 2 | 
40 | CCc1c(C)nc2sc(C(=O)OC(C)(C)C)c(-c3ccc4c(c3)OCO4)c2c1C [Compound 39] | > 2 | 151 to 152
41 | CC(C)(C)c1cc(C(F)(F)F)c2c(N)c(C(N)=O)sc2n1 [Compound 2] | > 2 | 
42 | CC1(C)Cc2c(c(N3CCOCC3)nc3sc(C(N)=O)c(N)c23)CO1 [Compound 4] | > 2 | 

Row | SMILES | IC50 (HCV replicon) [µM] | melting point [°C]
43 | Cc1cc(-c2cccs2)c2c(N)c(C#N)sc2n1 [Compound 30] | > 2 | 
44 | N#Cc1c(-c2ccc3c(c2)OCO3)sc2nc3c(c(-c4cccs4)c12)CCCCC3 [Compound 62] | > 2 | 210 to 211
45 | Cc1nc2sc(C(=O)OC(C)(C)C)c(N)c2c(C)c1OCCN(C)C [Compound 72] | > 2 | 
46 | Cc1nc2sc(C(=O)OC(C)(C)C)c(N)c2c(C)c1-c1ccccc1 [Compound 55] | > 2 | 212 to 213
47 | COc1ccc(Nc2sc3nc4c(c(-c5cccs5)c3c2C#N)CCCCC4)cc1 [Compound 64] | > 2 | 
48 | Cc1nc2sc(C(=O)OC(C)(C)C)c(N)c2c(C)c1OCCN1CCN(C)CC1 [Compound 71] | > 2 | 155.4 to 155.5
49 | COc1ccccc1-c1noc(-c2sc3nc(C)c(C)c(C)c3c2N)n1 [Compound 20] | 0.5 to 2 | 244 to 245
50 | N#Cc1c(Br)sc2nc3c(c(-c4cccs4)c12)CCCCC3 [Compound 60] | > 2 | 196.4 to 196.7
51 | CCN1CCN(CCOc2c(C)nc3sc(C(=O)OC(C)(C)C)c(N)c3c2C)CC1 [Compound 74] | > 2 | 
52 | CCc1c(C)nc2sc(C(=O)OC(C)(C)C)c(-c3ccc(Cl)cc3)c2c1C [Compound 42] | > 2 | 117 to 118
53 | COc1ccccc1-c1nnc(-c2sc3nc(C)c(C)c(C)c3c2N)o1 [Compound 23] | 0.5 to 2 | 238 to 240
54 | CCc1c(C)nc2sc(C(=O)OC(C)(C)C)c(-c3ccc(OC)cc3)c2c1C [Compound 37, t-butyl 5-ethyl-3-(4-methoxy-phenyl)-4,6-dimethyl-thieno[2,3-b]pyridine-2-carboxylate] | > 2 | 
55 | Cc1nc2sc(-c3nc(-c4ccccc4)no3)c(N)c2c(C)c1C [Compound 24, 4,5,6-trimethyl-2-(3-phenyl-[1,2,4]oxadiazol-5-yl)-thieno[2,3-b]pyridin-3-ylamine] | < 0.5 | 276 to 278
56 | CC(C)(C)OC(=O)c1sc2nc3c(c(-c4ccco4)c2c1N)CCCC3 [Compound 32] | > 2 | 
57 | CCc1c(C)nc2sc(NC(=O)C3CCCC3)c(C#N)c2c1C [Compound 49, cyclopentanecarboxylic acid (3-cyano-5-ethyl-4,6-dimethyl-thieno[2,3-b]pyridin-2-yl)amide] | > 2 | 228 to 230
58 | Cc1nc2sc(-c3nnc(-c4cccc(F)c4)o3)c(N)c2c(C)c1C [Compound 8] | 0.5 to 2 | 300 to 302
59 | Cc1nc2sc(C(=O)OC(C)(C)C)c(N)c2c(C)c1OCCN1CCCN(C)CC1 [Compound 68] | 0.5 to 2 | 
60 | N#Cc1c(C(=O)Nc2ccccc2)sc2nc3c(c(-c4cccs4)c12)CCCCC3 [Compound 57] | > 2 | 215.3 to 215.7
61 | Cc1nc2sc(-c3noc(-c4cccs4)n3)c(N)c2c(C)c1C [Compound 22] | < 0.5 | 260 to 265
62 | Cc1cc(CO)c2c3c(sc2n1)C(=O)NC(c1ccccc1)N3 (centres unmarked) [Compound 38, 4-hydroxymethyl-2-methyl-6-phenyl-6,7-dihydro-5H-9-thia-1,5,7-triaza-fluoren-8-one] | > 2 | 
63 | CCc1c(C)nc2sc(S(C)(=O)=O)c(C#N)c2c1C [Compound 54] | > 2 | 219 to 220
